Where “and” joins values, the source holds several entries; their conditions need not be identical. Identical values can stand only once.
Target: T1, human glucagon receptor (hGCGR) (Homo sapiens, UniProt P47871)
T1 construct: host or cells: HEK293
Experiment: HTRF second messenger cAMP response experiment (called cell viability test) in HEK293 cells with glucagon peptide segment
Type: cell-based
Conditions: for inhibitory activity of glucagon receptor (in words, from cAMP response curves): FIG. 5 / FIG. 14
Description: In order to determine the antagonistic activity of the compound A on the glucagon receptor in the above embodiments, a cell viability test is carried out. The specific implementation is as follows.
A known human glucagon receptor (hGCGR) antagonist drug is selected as a positive control, and the compound A in the above embodiments, a glucagon peptide segment (that is, human full-length glucagon), and human embryonic kidney cells containing target receptor molecules are mixed. The glucagon peptide segment binds to hGCGR to activate the hGCGR signaling pathway and release the second messenger cAMP. The compound A acts as an antagonist to inhibit the activity of hGCGR.
In an exemplary embodiment, a known hGCGR antagonist drug (L-168,049) is selected as a positive control. […] In addition, in view of the human glucagon receptor on the cell membrane of human embryonic kidney cells HEK293, HEK293 is used to test the drug activity of the human glucagon antagonist. In this embodiment, different concentrations of compound A of the present disclosure and the positive control are respectively mixed with glucagon peptide segments and HEK293 cells, the second messenger cAMP is detected through homogeneous time resolved fluorescence (HTRF), and a half maximal inhibitory concentration value of each compound is calculated according to the intensity value of HTRF.
(§1) In an exemplary embodiment, the activity of the compound A is tested using the HTRF technique. Specifically, after activation of the glucagon receptor by the glucagon peptide segment, the second messenger cAMP is released from the glucagon receptor cells, the second messenger cAMP may be detected by HTRF, and the half maximal inhibitory concentration (IC50) of the tested compound may be calculated according to the fluorescence intensity.
In an exemplary embodiment, 11 identical concentration gradients are set for the compounds A1 and A2 respectively. The activities of the compounds A1 and A2 are determined by the HTRF second messenger cAMP response experiment in triplicate.
Step S910. Select an antagonist drug of hGCGR as a positive control, and mix each target drug small molecule, a glucagon peptide segment, and human embryonic kidney cells containing the target receptor molecule. The glucagon peptide segment binds to hGCGR to activate the hGCGR signaling pathway and release the second messenger cAMP. The target drug molecule acts as an antagonist to inhibit the activity of hGCGR.
In an exemplary embodiment, an antagonist drug (such as L-168,049) of hGCGR is selected as a positive control. In addition, in view of the human glucagon receptor on the cell membrane of human embryonic kidney cells (such as HEK293), HEK293 may be used to test the drug activity of the human glucagon antagonist. The target drug small molecule, the glucagon peptide segment, and the HEK293 cells containing the target receptor molecule are mixed. The glucagon peptide segment is used to bind to hGCGR to activate the hGCGR signaling pathway and promote the release of the second messenger cAMP. The target drug molecule acts as an antagonist to inhibit the activity of hGCGR.
Step S920. Detect the second messenger cAMP through HTRF, and determine a half maximal inhibitory concentration value of each target drug small molecule according to an intensity value of HTRF.
as §1, with “each target drug small molecule (such as 30 target drug small molecules shown in Table 2)” for “the compound A”, “tested by” for “tested”, “drug molecule” for “tested compound”, “intensity. […]” for “intensity.”

[1] = concentration gradient LogM −5.477121, HEK293 cells, glucagon peptide segment, HTRF cAMP, triplicate columns
[2] = concentration gradient LogM −8.339849, HEK293 cells, glucagon peptide segment, HTRF cAMP, triplicate columns
[3] = concentration gradient LogM −9.294091, HEK293 cells, glucagon peptide segment, HTRF cAMP, triplicate columns
[4] = concentration gradient LogM −6.908485, HEK293 cells, glucagon peptide segment, HTRF cAMP, triplicate columns
[5] = concentration gradient LogM −7.862728, HEK293 cells, glucagon peptide segment, HTRF cAMP, triplicate columns
[6] = concentration gradient LogM −7.385606, HEK293 cells, glucagon peptide segment, HTRF cAMP, triplicate columns
[7] = concentration gradient LogM −8.81697, HEK293 cells, glucagon peptide segment, HTRF cAMP, triplicate columns
[8] = concentration gradient LogM −5.954243, HEK293 cells, glucagon peptide segment, HTRF cAMP, triplicate columns
[9] = concentration gradient LogM −5, HEK293 cells, glucagon peptide segment, HTRF cAMP, triplicate columns

T1 sequence (P47871 26-477): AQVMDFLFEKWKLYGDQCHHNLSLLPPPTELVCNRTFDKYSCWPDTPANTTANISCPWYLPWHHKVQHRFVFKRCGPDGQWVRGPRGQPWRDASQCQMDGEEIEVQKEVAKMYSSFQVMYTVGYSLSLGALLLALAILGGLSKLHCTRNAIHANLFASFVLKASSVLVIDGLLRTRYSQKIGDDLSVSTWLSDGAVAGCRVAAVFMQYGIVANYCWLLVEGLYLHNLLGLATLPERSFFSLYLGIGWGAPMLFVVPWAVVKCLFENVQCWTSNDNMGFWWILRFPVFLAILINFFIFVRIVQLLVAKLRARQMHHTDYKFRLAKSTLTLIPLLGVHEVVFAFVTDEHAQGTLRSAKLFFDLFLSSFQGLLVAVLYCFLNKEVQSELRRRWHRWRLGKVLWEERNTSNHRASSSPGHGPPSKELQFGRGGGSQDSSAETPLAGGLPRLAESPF

NS(=O)(=O)c1ccc(NC(=S)NNC(=S)NC2CCCCC2)cc1 [Compound C1]
IC50: > 10 µM
Inhibition percentage [1]: −14.4564% and −9.717% and −14.5956%
Inhibition percentage [2]: 23.36% and 11.78% and 18.98%

O=S(=O)(NCCc1ccccc1)c1ccc(NC(=S)Nc2ccccc2)cc1 [Compound C2]
IC50: > 10 µM
Inhibition percentage [3]: 1.325% and 0.8006% and 5.407%

COc1ccc(C(=O)NC(=S)Nc2ccc(NC(=S)NC(C)=O)cc2)cc1Cl [Compound C3]
IC50: > 10 µM
Inhibition percentage [4]: 5.05% and 4.705% and 12.02%

O=S(=O)(Nc1ccc(Cl)cc1)c1ccc(NC(=S)Nc2ccccc2)cc1 [Compound C4]
IC50: > 10 µM

O=C(NCCCCCCNC(=O)NCc1cccnc1)NCc1cccnc1 [Compound C5]
IC50: > 10 µM

O=C(CCCCC(=O)NNC(=S)Nc1ccc(Br)cc1)NNC(=S)Nc1ccc(Br)cc1 [Compound C6]
IC50: > 10 µM
Inhibition percentage [5]: −28.7792% and −19.4453% and −24.9236%

O=C(NNC(=S)Nc1ccccc1)[C@H](O)[C@@H](O)C(=O)NNC(=S)Nc1ccccc1 [Compound C7]
IC50: > 10 µM
Inhibition percentage [5]: −25.3779% and −25.5195% and −24.1306%
Inhibition percentage [3]: −8.847% and −15.2446% and −18.5536%

CCC(=O)NC(=S)Nc1ccc(NC(=S)NC(=O)c2ccccc2OC)cc1 [Compound C8]
IC50: > 10 µM

CCC(=O)NC(=S)Nc1ccc(NC(=S)NC(=O)c2cccc(OC)c2)cc1 [Compound C9]
IC50: > 10 µM
Inhibition percentage [6]: 3.734% and −2.05% and −2.9843%
Inhibition percentage [7]: 8.521% and 5.537% and 14.34%

CN1C(=O)Cc2cc(S(=O)(=O)CCC(=O)NCCc3ccccc3)ccc21 [Compound C10]
IC50: > 10 µM
Inhibition percentage [8]: 1.692% and 1.059% and 6.715%
Inhibition percentage [4]: −33.073% and −31.3707% and −29.8413%

CC(=O)c1ccccc1NC(=O)c1c(O)c2c3c(sc2[nH]c1=O)C[C@H](C)CC3 [Compound C11]
IC50: > 10 µM
Inhibition percentage [9]: 21.46% and 27.01% and 27.99%
Inhibition percentage [2]: 11.37% and 16.25% and 12.52%

COc1cc(/C=N/NC(=O)CN2C(=O)N[C@H]3NC(=O)N[C@@H]32)cc(OC)c1O [Compound C12]
IC50: > 10 µM

COc1ccc(NC(=O)c2c(O)c3c4c(sc3[nH]c2=O)C[C@@H](C)CC4)cc1Cl [Compound C13, (7S)—N-(3-chloro-4-methoxyphenyl)-4-hydroxy-7-methyl-2-oxo-5,6,7,8-tetrahydro-1H-[1]benzothiolo[2,3-b]pyridine-3-carboxamide]
IC50: 0.446 µM
inhibitory activity of glucagon receptor (in words, from cAMP response curves): have the activity
inhibitory activity of glucagon receptor (in words, from cAMP response curves) (listed as A1): good inhibitory activity of glucagon receptor
Inhibition percentage [9]: 98.37% and 95.2799% and 96.15%
Inhibition percentage (concentration gradient LogM −5, triplicate, HEK293, cAMP HTRF, listed as A1): 98.37 percentage and 95.2799 percentage and 96.15 percentage
Inhibition percentage [1]: 87.84% and 83.28% and 83.51%
Inhibition percentage (concentration gradient LogM −5.477121, triplicate, HEK293, cAMP HTRF, listed as A1): 87.84 percentage and 83.28 percentage and 83.51 percentage
Inhibition percentage [8]: 75.44% and 83.24% and 79.3%
Inhibition percentage (concentration gradient LogM −5.954243, triplicate, HEK293, cAMP HTRF, listed as A1): 75.44 percentage and 83.24 percentage and 79.3 percentage
Inhibition percentage [5]: 7.62% and −2.135% and −0.781%

CSc1cccc(NC(=O)c2c(O)c3sccc3[nH]c2=O)c1 [Compound C14]
IC50: 0.422 µM
inhibitory activity of glucagon receptor (in words, from cAMP response curves): have the activity
inhibitory activity of glucagon receptor (in words, from cAMP response curves) (listed as A2): good inhibitory activity of glucagon receptor
Inhibition percentage [9]: 103.2945% and 102.1097% and 103.2736%
Inhibition percentage (concentration gradient LogM −5, triplicate, HEK293, cAMP HTRF, listed as A2): 103.2945 percentage and 102.1097 percentage and 103.2736 percentage
Inhibition percentage [1]: 106.1285% and 105.9119% and 107.3553%
Inhibition percentage (concentration gradient LogM −5.477121, triplicate, HEK293, cAMP HTRF, listed as A2): 106.1285 percentage and 105.9119 percentage and 107.3553 percentage
Inhibition percentage [8]: 84.32% and 92.48% and 91.05%
Inhibition percentage (concentration gradient LogM −5.954243, triplicate, HEK293, cAMP HTRF, listed as A2): 84.32 percentage and 92.48 percentage and 91.05 percentage
Inhibition percentage (concentration gradient LogM −6.431364, HEK293 cells, glucagon peptide segment, HTRF cAMP, triplicate columns): 40.16% and 62.74% and 47.65%
Inhibition percentage (concentration gradient LogM −6.431364, triplicate, HEK293, cAMP HTRF, listed as A2): 40.16 percentage and 62.74 percentage and 47.65 percentage

COc1ccc2cc(C(=O)NCCNc3ccc(C)nn3)[nH]c2c1 [Compound C15]
IC50: > 10 µM
Inhibition percentage [9]: 2.451% and 0.02571% and 3.529%
Inhibition percentage [4]: −19.189% and −13.1875% and −18.6652%
Inhibition percentage [5]: 3.911% and 12.71% and 11.16%

O=C(CCNC(=O)c1ccccc1)NCc1cccc(NC(=O)C2CC2)c1 [Compound C16]
IC50: > 10 µM
Inhibition percentage [4]: −5.221% and −7.477% and −6.358%
Inhibition percentage [7]: −7.7562% and −6.836% and −15.6271%

CSc1cccc(NC(=O)CCNS(=O)(=O)c2ccc(NC(C)=O)cc2)c1 [Compound C17]
IC50: > 10 µM

O=C(COC(=O)CCNS(=O)(=O)c1ccc(Cl)cc1)NC(=O)NCc1ccco1 [Compound C18]
IC50: > 10 µM
Inhibition percentage [8]: −6.593% and −12.6979% and −7.936%

O=C(CNC(=O)NCCCOC1CCCCC1)Nc1ccc(F)c(F)c1 [Compound C19]
IC50: > 10 µM

O=C(COC(=O)CCNC(=O)c1ccsc1)NC(=O)NCc1cccs1 [Compound C20]
IC50: > 10 µM

O=C(CSc1nc2ccccc2[nH]1)NC(=O)Nc1ccc2c(c1)OCO2 [Compound C21]
IC50: > 10 µM

O=C(CNC(=O)NCCCN1CCCCCC1=O)Nc1ccc(F)c(F)c1 [Compound C22]
IC50: > 10 µM
Inhibition percentage [6]: −5.735% and 1.578% and −3.875%

Cc1ccc(-c2csc(NC(=O)c3ccc4c(c3)NC(=O)CS4)n2)c(C)c1 [Compound C23]
Inhibition percentage [9]: 75.66% and 75.14% and 57.58%

CNC(=O)Cc1ccccc1NC(=O)NCCC(=O)NC1CCCC1 [Compound C24]
IC50: > 10 µM

CC(C)(C)NC(=O)NC(=O)CSc1nc(-c2cccs2)c(-c2cccs2)[nH]1 [Compound C25]
IC50: > 10 µM

COc1cc(NC(=O)CNC(=O)CNC(=O)c2cccs2)c(OC)cc1Cl [Compound C26]
IC50: > 10 µM

O=C(CCNC(=O)NC1CCCCC1)NNc1ccccc1C(F)(F)F [Compound C27]
IC50: > 10 µM
Inhibition percentage [2]: −24.7315% and −29.8299% and −20.459%

CS(=O)(=O)NCCOc1ccc(S(=O)(=O)NCCOc2ccccc2)cc1 [Compound C28]
IC50: > 10 µM

Cn1c(CNC(=O)c2cccs2)nnc1SCC(=O)Nc1ccc(Cl)cc1 [Compound C29]
IC50: > 10 µM

CNC(=O)NC(=O)CSc1nc2cc(-c3ccc(F)cc3)sc2c(=O)n1N [Compound C30]
IC50: > 10 µM
